Measured values from article PMC7617889, “Molecular basis for pH sensing in the KDEL trafficking receptor” (Structure (London, England : 1993), 2024).
Where no end group is shown, it is not given here.

Assays:
[1] = system: HeLa S3 cells (endogenous KDEL receptor); experiment: ER secretion assay (western blot of cells and media); type: cell-based, human; details: for secretion of endogenous luminal ER chaperones (BiP, PDI, ERP44) caused by the exogenous signal variant: western blot, n = 3, compared with signals having leucine at −1, result in words; for ER retention of the mScarlet reporter (secretion to media): 24 hr expression, western blot of cell extracts and medium, n = 3, result in words
Source text: To further explore if disturbing the water will disrupt the binding, the terminal leucine at the −1 position in the HDEL ligand was alchemically changed to phenylalanine or alanine (Figures 3E and 3F). Phenylalanine also stabilized the two waters in the binding pocket, resulting in a high unbinding free energy. Due to its small size, alanine, however, was unable to stabilize the water, resulting in lower binding free energy. To validate these calculations, we tested the impact of signal variants at the −1 position on both retrieval of the endogenous KDELR from the Golgi to the ER and ER retention of a reporter protein carrying the signal variant in a cellular assay. To measure the role of the −1 position on retrieval of the endogenous KDELR to the ER, cells were transfected with mScarlet-reporters carrying −1 alanine (H/KDEA) or phenylalanine (H/KDEF) variants of either the HDEL or KDEL retrieval signals (Figure 4A). […] Finally, the effect of −1 variant signals on KDELR retrieval of endogenous ER chaperones was also tested. […] This effect was reduced for HDEF or KDEF signals and lost entirely for HDEA or KDEA signals (Figures 4B and 4D).
Figure 4 The terminal amino acid modulates recognition of the ERS by the KDEL receptor (A) Endogenous KDEL receptor redistribution was measured in COS-7 cells in the absence (-ligand) or presence of H/KDEL/F/A (mScarlet-xDEx^sec). TGN46 was used as a Golgi marker. The scale bar is 10 μm. The mean differences for H/KDEL/F/A comparisons against the shared no-ligand control are shown as Cummings estimation plots. The individual data points for the fraction of KDEL receptor fluorescence in the Golgi are plotted on the upper axes. On the lower axes, mean differences are plotted as bootstrap sampling distributions. Each mean difference is depicted as a dot. Each 95% confidence interval is indicated by the ends of the vertical error bars. (B) Cells and media collected from HeLa S3 cells expressing the xDEx variants (mScarlet-K/HDEx^sec) indicated in the figure were western blotted for resident ER chaperons and KDEL receptor.*unspecific bands (C) K/HDEx secretion to media bar graph showing mean ± SEM (n = 3). (D) Bar graph of endogenous ER chaperones secreted after challenged with different retrieval signals as measured by western blot showing mean ± SEM (n = 3).
ER chaperone secretion assays were performed as described in Gerondopoulos et al.[11] Briefly HeLa S3 cells were transfected with mScarlet-ligand (+xDEL ligand) or pcDNA3.1 (− ligand), and allowed to express the respective proteins for 24 hr. The media were TCA precipitated and both cell and media were resuspended and boiled in SDS-PAGE sample buffer. All samples were analysed by Western blotting and signals on films were measured by densitometry in FIJI.[33] Data were plotted as bar graphs in GraphPad Prism.

[2] = biological target: chicken KDELR; details: cited from earlier work
[3] = system: human KDELR1-GFP D9N in COS-7 cells; experiment: Retrieval assay (KDEL receptor redistribution Golgi to ER); type: cell-based; details: KDELR-GFP D9N vs WT, mScarlet ligand
Source text: Figure 6 Effect of the water on proton transfer between Asp9 and His12 (A) In the bound state, a proton could be transferred from the histidine (His12/H12) to the aspartate (Asp9/D9) through the crystallographic water. A similar proton transfer can also be made in the apo state. (B) In the apo and bound state, the free energy barrier for the proton transfer (the center of excess charge) from the histidine to aspartate is similar. A larger energy barrier is observed for the proton transfer from aspartate back to the histidine in the bound state. (C) WT, D9A and D9N-mutant KDEL receptors redistribution in COS-7 cells in the absence (-ligand) or presence of K/R/HDEL (mScarlet-xDEL^sec) ligand. TGN46 was used as a Golgi marker. […] (D) The fraction of wild-type and H12A, D9A, and D9N-mutant KDEL receptors localized to the Golgi was measured before (no ligand) and after challenge with different retrieval signals (K/R/HDEL) and is shown as Cummings estimation plots. […]
Retrieval assays were performed as described in Gerondopoulos et al.[11] […] The signal for the KDEL receptor (integrated pixel intensity) was measured in individual cells using FIJI[33] for the Golgi region defined by the TGN46 Golgi marker and for the entire cell in the presence (+) and absence (-) of ligand. The fraction of KDEL receptor in the Golgi apparatus was calculated by dividing the Golgi signal by the total cell signal. […]

[4] = biological target: TAEHDEL peptide; details: cited from earlier work
[5] = biological target: TAEKDEL peptide; details: cited from earlier work
[6] = biological target: T1, Gallus gallus (Gg) KDELR2 (Gallus gallus, UniProt Q5ZKX9); experiment: Peptide binding assay, competition of 3H-labelled peptide (filter binding, scintillation counting); details: competition of 3H-labelled peptide at 20 nM, 20 mM MES pH 5.4, 40 mM sodium chloride, 0.01% DDM 0.0005% CHS, 20°C, 10 min, mean, n = 3, read-out: affinity (mean IC50, Figure S3)
T1 construct: GFP-His fusion (C); made in house; host or cells: Saccharomyces cerevisiae strain BY5460
T1 sequence (Q5ZKX9 1-212): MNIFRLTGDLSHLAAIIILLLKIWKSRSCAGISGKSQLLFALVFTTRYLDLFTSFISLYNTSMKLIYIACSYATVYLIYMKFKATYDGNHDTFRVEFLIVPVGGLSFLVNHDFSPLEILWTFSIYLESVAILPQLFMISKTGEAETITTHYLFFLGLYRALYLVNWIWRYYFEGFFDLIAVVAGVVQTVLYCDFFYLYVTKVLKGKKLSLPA
Description: Binding assays were performed as detailed in Bräuer, P. et al.[19] WT or mutant protein (5 μL) in 20 mM MES pH 5.4, 40 mM Sodium Chloride, 0.01% DDM 0.0005% CHS was incubated with 5 μL of 3H-TAEHDEL (Cambridge Research Biochemicals, UK) at 20 nM at 20°C for 10 min. Using a vacuum manifold, the reaction was then filtered through a 0.22 μm mixed cellulose ester filters (Millipore, USA). Filters were washed with 2 x 0.5 mL cold buffer. The amount of peptide remaining bound was measured using scintillation counting in Ultima Gold (Perkin Elmer). Experiments were performed at least three times, independently, to generate an overall mean and standard deviation (s.d).
Figure S3. Affinity of different cargo signals, related to Figure 5. Mean IC50 values calculated for the TAEHDEF and TAEHDEL peptides competing […] peptide. Error bars are standard deviation of the mean (n = 3).
(1 picture or pasted object on this page, not shown here)

[7] = biological target: T2, human KDELR1-GFP D9N (human) (UniProt P24390)
T2 sequence: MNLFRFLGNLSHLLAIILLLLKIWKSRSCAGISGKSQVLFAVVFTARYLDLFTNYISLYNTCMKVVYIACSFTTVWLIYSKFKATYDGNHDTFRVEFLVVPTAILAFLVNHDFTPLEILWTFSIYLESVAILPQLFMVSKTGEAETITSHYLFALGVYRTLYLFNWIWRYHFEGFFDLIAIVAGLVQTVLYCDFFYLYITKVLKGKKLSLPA

Substance	secretion of endogenous luminal ER chaperones (BiP, PDI, ERP44) caused by the exogenous signal variant [1]	Kd [2] [nM]	other results
HDEA [HDEL ligand with terminal leucine changed to alanine (simulation)]	lost entirely		
HDEF [HDEL ligand with terminal leucine changed to phenylalanine (simulation)]	reduced		ER retention of the mScarlet reporter (secretion to media) [1]: retained more efficiently than the alanine variants but less efficiently than when leucine is present
HDEL		240	retrieval of cargo by the Asp9Asn receptor variant relative to WT [3]: ~ 80 % WT levels
KDEA [KDEL ligand with alanine at the −1 position (simulation)]	lost entirely		
KDEF^sec: hGHss-mScarlet-H. sapiens BiP639-654 L654F secreted reporter (GPPPTGEEDTAEKDEF; not fully specified (N-terminus))	reduced		ER retention of the mScarlet reporter (secretion to media) [1]: retained more efficiently than the alanine variants but less efficiently than when leucine is present
KDEL receptor (from UniProt Q5ZKX9)			Kd [4]: 240 nM; Kd [5]: 1940 nM
Lys-Asp-Glu-Leu [KDEL]		1940	
RDEL [RDEL variant of the retrieval signal peptide]		2710	
TAEHDEF [TAEHDEF]			IC50 [6]: 23000 nM
TAEHDEL [TAEHDEL, reference compound]			IC50 [6]: 18000 nM
TAEKDEL [ER-retrieval signal peptide with canonical KDEL, Cambridge peptides]		1940	
hGHss-mScarlet-H. sapiens BiP639-654 K651H (HDEL^SEC) (from UniProt P11021 639-654)			ligand-induced redistribution of KDELR1-GFP from the Golgi in COS-7 cells (cell retrieval assay), HDEL ligand [7]: 80 % WT levels
